Laboratory results from article PMC3246188, “Inhibition of endothelial- and neuronal-type, but not inducible-type, nitric oxide synthase by the oxidized cholesterol metabolite secosterol aldehyde: Implications for vascular and neurodegenerative diseases” (Journal of Clinical Biochemistry and Nutrition, 2011).
Where two headings read alike, the source gives them in different places. One block for each compound: values may come before it.

Tests used:
nNOS = molecular target: T1, nNOS (Rattus norvegicus, UniProt P29476); assay: NOS activity assay, conversion of L-[14C(U)]-arginine to L-[14C(U)]-citrulline, recombinant nNOS; format: biochemical; settings: for Pattern of inhibition of nNOS activity: Lineweaver-Burke plot; for Effect on nNOS activity: up to the highest concentration (100 µM)
T1 construct: purchased Cayman Chem
T1 sequence (P29476 whole entry): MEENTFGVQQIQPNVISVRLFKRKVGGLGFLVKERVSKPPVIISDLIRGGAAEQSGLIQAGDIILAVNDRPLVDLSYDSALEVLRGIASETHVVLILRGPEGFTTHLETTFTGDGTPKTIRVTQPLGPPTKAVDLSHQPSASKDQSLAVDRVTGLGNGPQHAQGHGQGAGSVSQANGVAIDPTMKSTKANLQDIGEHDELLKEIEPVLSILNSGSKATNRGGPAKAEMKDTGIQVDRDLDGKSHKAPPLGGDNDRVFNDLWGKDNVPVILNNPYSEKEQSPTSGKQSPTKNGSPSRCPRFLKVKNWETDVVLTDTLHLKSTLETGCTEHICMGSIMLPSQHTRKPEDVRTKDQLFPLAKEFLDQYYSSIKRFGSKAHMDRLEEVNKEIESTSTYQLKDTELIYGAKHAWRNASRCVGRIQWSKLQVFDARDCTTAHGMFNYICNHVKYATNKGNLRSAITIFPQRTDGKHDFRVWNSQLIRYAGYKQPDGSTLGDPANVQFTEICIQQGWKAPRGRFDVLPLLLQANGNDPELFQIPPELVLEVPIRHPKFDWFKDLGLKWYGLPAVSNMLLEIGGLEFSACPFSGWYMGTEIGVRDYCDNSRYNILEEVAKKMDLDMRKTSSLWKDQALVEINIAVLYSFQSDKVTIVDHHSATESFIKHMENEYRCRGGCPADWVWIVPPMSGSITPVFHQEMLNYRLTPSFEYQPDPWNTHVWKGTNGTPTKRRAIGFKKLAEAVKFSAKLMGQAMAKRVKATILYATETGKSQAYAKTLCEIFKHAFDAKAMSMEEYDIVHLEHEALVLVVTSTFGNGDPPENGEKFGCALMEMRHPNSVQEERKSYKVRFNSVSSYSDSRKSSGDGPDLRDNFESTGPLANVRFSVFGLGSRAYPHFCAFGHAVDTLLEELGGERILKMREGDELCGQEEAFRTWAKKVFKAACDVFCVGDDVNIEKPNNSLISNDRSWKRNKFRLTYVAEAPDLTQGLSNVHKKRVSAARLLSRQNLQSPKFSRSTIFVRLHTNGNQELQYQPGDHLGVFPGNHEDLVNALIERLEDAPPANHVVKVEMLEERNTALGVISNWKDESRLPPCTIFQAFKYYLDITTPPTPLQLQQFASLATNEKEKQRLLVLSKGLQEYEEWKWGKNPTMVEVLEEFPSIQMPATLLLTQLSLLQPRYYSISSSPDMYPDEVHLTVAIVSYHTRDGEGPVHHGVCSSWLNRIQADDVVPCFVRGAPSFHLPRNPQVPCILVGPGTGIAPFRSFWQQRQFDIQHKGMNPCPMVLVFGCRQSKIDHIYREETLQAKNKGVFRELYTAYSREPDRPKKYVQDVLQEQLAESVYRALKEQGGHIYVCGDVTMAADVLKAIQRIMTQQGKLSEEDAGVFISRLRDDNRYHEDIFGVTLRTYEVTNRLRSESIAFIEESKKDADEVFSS
Description: (§1) Secosterol-A and -B were synthesized according to Wentworth et al.([1]) L-Arginine, nicotinamide adenine dinucleotide phosphate reduced form (NADPH), flavin adenine dinucleotide (FAD), flavin mononucleotide (FMN), (6R)-5,6,7,8-tetrahydrobiopterin (BH4), recombinant eNOS (from bovine), iNOS (from mouse macrophages), and Dowex® AG50W-X8 cation-exchange resin (mesh size, 100–200) were all purchased from Sigma Chem. (St. Louis, MO). Ultima Gold XR scintillation liquid was from PerkinElmer (Shelton, CA). Recombinant nNOS (from rat) was obtained from Cayman Chem. All other chemicals were obtained from Wako Pure Chem. Ind., Osaka, Japan.
(§2) The NOS activities were determined by monitoring the conversion of L-[^14C(U)]-arginine (Moravek, Brea, CA) to L-[^14C(U)]-citrulline as previously described.([28]) Recombinant enzymes of three isoforms of NOS (specific activity: eNOS 0.03, nNOS 2.9, iNOS 0.62 units/mg protein) (10 µl) were added to a reaction mixture (final volume of 100 µl) consisting of 50 mM HEPES buffer (pH 7.4), 1 mM NADPH, 4 µM FAD, 4 µM FMN, 10 µM BH4, 1 mg/L (60 µM) calmodulin (CaM), 2.5 mM CaCl2, 50 µM L-arginine, 0.5 µCi/ml of L-[^14C(U)]-arginine (specific activity: 8.14–11.1 GBq/mmol) and varying concentrations of the test compound. After incubation for 30 min at 37°C, the reactions were terminated by the addition of 0.5 ml of 20 mM HEPES (pH 5.5) containing 2 mM EDTA and 2 mM EGTA. Samples were passed through a 1 ml column of Dowex AG50W-X8 (Na^+-form) to remove unconverted L-[^14C(U)]-arginine. L-[^14C(U)]-Citrulline was eluted twice with 1 ml of distilled water, and the eluted fractions mixed with 10 ml of cocktail (Ultima Gold XR) were quantified using a liquid scintillation counter. A reaction mixture containing L-[^14C(U)]-arginine without the enzyme was incubated as a control to determine background counts. The effects of oxidized cholesterol metabolites on the NOSs activities were examined in the presence and absence of the test compounds at various concentrations, which were prepared in 5% ethanol and a 10 µl aliquot was added into the reaction mixture.
(§3) Initial rates of citrulline formation were obtained by linear leastsquares data fitting of actual experimental data. Apparent Km and Vmax values at each inhibitor concentration were obtained from nonlinear regression fitting using the Michaelis-Menten equation. Ki and Kiʹ were obtained from the X-axis intercepts of plots of measured Km/Vmax and 1/Vmax vs inhibitor concentration, respectively.

eNOS = molecular target: T2, eNOS (Bos taurus, UniProt P29473); assay: NOS activity assay, conversion of L-[14C(U)]-arginine to L-[14C(U)]-citrulline, recombinant eNOS; format: biochemical, bovine; settings: for Effect on eNOS activity: up to the highest concentration (100 µM)
T2 construct: purchased Sigma Chem. (St. Louis, MO)
T2 sequence (P29473 2-1205 limits assumed): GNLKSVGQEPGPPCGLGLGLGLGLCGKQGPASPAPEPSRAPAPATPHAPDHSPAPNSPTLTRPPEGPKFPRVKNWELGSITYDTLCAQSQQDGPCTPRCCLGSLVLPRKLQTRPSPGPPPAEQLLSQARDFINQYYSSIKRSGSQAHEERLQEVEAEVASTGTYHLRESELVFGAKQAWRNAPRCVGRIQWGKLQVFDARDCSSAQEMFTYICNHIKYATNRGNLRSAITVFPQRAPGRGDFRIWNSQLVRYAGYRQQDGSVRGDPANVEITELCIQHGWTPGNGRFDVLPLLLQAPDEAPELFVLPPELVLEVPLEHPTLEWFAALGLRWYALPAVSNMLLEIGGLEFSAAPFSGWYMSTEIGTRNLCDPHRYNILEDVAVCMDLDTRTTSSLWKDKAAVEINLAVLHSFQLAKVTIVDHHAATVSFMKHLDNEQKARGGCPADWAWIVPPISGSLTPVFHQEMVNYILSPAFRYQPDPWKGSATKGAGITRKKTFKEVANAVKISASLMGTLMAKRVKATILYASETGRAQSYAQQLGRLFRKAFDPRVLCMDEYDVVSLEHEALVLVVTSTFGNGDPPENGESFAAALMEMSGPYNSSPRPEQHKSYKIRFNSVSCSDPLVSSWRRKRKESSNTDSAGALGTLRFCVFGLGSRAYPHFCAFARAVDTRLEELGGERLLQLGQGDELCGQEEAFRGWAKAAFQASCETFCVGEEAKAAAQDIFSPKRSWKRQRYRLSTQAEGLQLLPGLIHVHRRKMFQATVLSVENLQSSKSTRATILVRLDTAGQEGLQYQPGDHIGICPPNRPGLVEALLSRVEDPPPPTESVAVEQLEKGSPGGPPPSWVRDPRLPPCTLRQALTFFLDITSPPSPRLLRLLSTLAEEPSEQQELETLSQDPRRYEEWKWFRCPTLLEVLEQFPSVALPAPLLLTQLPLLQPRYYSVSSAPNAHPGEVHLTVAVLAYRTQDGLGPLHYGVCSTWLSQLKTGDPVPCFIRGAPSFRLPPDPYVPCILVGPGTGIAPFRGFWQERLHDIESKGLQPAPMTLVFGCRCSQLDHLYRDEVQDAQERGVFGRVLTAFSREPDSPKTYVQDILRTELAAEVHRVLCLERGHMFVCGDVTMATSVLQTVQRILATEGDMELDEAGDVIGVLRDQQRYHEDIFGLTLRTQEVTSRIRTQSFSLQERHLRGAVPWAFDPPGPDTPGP
Description: as §1, §2, §3

iNOS = molecular target: T3, iNOS (Mus musculus, UniProt P29477); assay: NOS activity assay, conversion of L-[14C(U)]-arginine to L-[14C(U)]-citrulline, recombinant iNOS; format: biochemical; settings: tested 1–100 µM, highest concentration 100 µM
T3 construct: purchased Sigma Chem. (St. Louis, MO)
Description: as §1, §2

bovine serum albumin = bovine serum albumin (Bos taurus, UniProt P02769); assay: Reaction with proteins to form the adduct (preliminary, unpublished data)
Sequence of bovine serum albumin (P02769 25-607): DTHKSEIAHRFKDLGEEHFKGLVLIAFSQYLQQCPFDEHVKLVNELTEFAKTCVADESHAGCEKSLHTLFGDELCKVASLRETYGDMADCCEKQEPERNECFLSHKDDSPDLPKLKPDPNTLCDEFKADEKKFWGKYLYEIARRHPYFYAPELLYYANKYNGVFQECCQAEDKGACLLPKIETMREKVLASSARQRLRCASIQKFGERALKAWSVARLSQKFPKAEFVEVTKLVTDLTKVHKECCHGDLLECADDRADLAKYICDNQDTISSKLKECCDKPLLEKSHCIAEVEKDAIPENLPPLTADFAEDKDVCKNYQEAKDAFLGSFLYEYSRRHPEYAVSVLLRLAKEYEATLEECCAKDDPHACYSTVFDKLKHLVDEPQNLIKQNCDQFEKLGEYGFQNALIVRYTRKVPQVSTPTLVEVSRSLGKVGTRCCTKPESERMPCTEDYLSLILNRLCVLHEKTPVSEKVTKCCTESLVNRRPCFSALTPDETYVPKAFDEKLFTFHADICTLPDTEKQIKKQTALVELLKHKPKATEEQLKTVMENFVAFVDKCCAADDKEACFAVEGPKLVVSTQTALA

[1] = varying L-arginine, read-out: Ki(app) for the catalytic site

- nNOS activity, % of the activity without secosterol-A (nNOS; 40 µM secosterol-A, 10 µM BH4): 23%
- nNOS activity compared to the activity without secosterol-A (nNOS; 40 µM secosterol-A, 60 µM CaM): 22%
- Restoration of inhibited nNOS activity by added BH4 (nNOS; 40 µM secosterol-A, 50 and 100 µM BH4): did not restore
- nNOS activity compared to the activity without secosterol-A (nNOS; 40 µM secosterol-A, excess CaM 300 µM): 63%
- nNOS activity compared to the activity without secosterol-A (nNOS; 40 µM secosterol-A, excess CaM 600 µM): 86%
- Vmax(app)ʹ (nNOS; L-arginine as substrate, in the presence of 40 µM secosterol-A (10000 without inhibitor)): 909 µmol·L^−1·30 min^−1
- IC50 (nNOS; recombinant rat nNOS, 50 µM L-arginine, 30 min at 37°C): 22 ± 1 µM
- Pattern of inhibition of nNOS activity (nNOS; varying CaM): noncompetitive or a mixed-type
- Ki (nNOS; varying CaM, read-out: Kiʹ for the allosteric site (CaM-dependent nNOS activity)): 30 µM
- Pattern of inhibition of nNOS activity (nNOS; varying L-arginine): noncompetitive or a mixed-type
- Ki (nNOS; [1]): 10 µM
- Ki (nNOS; varying L-arginine, read-out: Ki(app)ʹ for the allosteric site): 1 µM
- eNOS activity, % of the activity without secosterol-A (eNOS; 100 µM secosterol-A, 10 µM BH4): 41%
- Restoration of inhibited eNOS activity by added BH4 (eNOS; 100 µM secosterol-A, 50 and 100 µM BH4): did not restore
- Restoration of inhibited eNOS activity by excess CaM (eNOS; 100 µM secosterol-A, CaM 60–600 µM): did not restore
- Vmax(app)ʹ (eNOS; L-arginine as substrate, in the presence of 50 µM secosterol-A (1400 without inhibitor)): 480 µmol·L^−1·30 min^−1
- IC50 (eNOS; recombinant bovine eNOS, 50 µM L-arginine, 30 min at 37°C): 50 ± 5 µM
- Ki (eNOS; [1]): 50 µM
- Effect on iNOS activity (iNOS): did not affect
- Reactivity with proteins to form the adduct (bovine serum albumin): more easily than secosterol-B
SMILES: CC(C)CCC[C@@H](C)[C@H]1CC[C@H]2[C@H](CC=O)[C@@H]([C@@]3(C)CC[C@H](O)CC3=O)CC[C@]12C [secosterol-A, 3β-hydroxy-5-oxo-5,6-secocholestan-6-al]

SMILES: CC(C)CCC[C@@H](C)[C@H]1CC[C@H]2[C@@H]3[C@@H](C=O)[C@]4(O)C[C@@H](O)CC[C@]4(C)[C@H]3CC[C@]12C [secosterol-B, 3β-hydroxy-5β-hydroxy-B-norcholestane-6β-carboxaldehyde]
- Effect on nNOS activity (nNOS): do not affect
- Effect on eNOS activity (eNOS): do not affect
- Effect on iNOS activity (iNOS): do not affect

SMILES: C[C@H](CCCC(C)(C)O)[C@H]1CC[C@H]2[C@@H]3CC=C4C[C@@H](O)CC[C@]4(C)[C@H]3CC[C@]12C [25-hydroxycholesterol]
- Effect on nNOS activity (nNOS): do not affect
- Effect on eNOS activity (eNOS): do not affect
- Effect on iNOS activity (iNOS): do not affect

SMILES: CC(C)CCC[C@@H](C)[C@H]1CC[C@H]2[C@@H]3C[C@H]4O[C@]45C[C@@H](O)CC[C@]5(C)[C@H]3CC[C@]12C [5β,6β-epoxycholesterol]
- Effect on nNOS activity (nNOS): do not affect
- Effect on eNOS activity (eNOS): do not affect
- Effect on iNOS activity (iNOS): do not affect

- Effect on nNOS activity (nNOS): do not affect
- Effect on nNOS activity (nNOS; listed as Cholesterol): no inhibitory effects
- Effect on eNOS activity (eNOS): do not affect
- Effect on eNOS activity (eNOS; listed as Cholesterol): no inhibitory effects
- Effect on iNOS activity (iNOS): do not affect
- Effect on iNOS activity (iNOS; listed as Cholesterol): no inhibitory effects
SMILES: CC(C)CCC[C@@H](C)[C@H]1CC[C@H]2[C@@H]3CC=C4C[C@@H](O)CC[C@]4(C)[C@H]3CC[C@]12C [cholesterol]

SMILES: CC(C)CCC[C@@H](C)[C@H]1CC[C@H]2[C@@H]3C(=O)C=C4C[C@@H](O)CC[C@]4(C)[C@H]3CC[C@]12C [7-ketocholesterol, 3β-hydroxy-5-cholesten-7-one]
- Effect on nNOS activity (nNOS): do not affect
- Effect on eNOS activity (eNOS): do not affect
- Effect on iNOS activity (iNOS): do not affect
